For data set [1], the system named is normal subjects. The data set can be described thus: CogState battery in MAD studies. In kind it is in vivo, Human. As for the experimental part:
The impact of the test compound on cognition in normal subjects was assessed as described below. In these studies, subjects were treated with the test compound dissolved in cranberry juice. In the MAD (Multiple Ascending Dose) studies cognition was assessed using tests from the CogState battery (cogstate.com). […] The CogState battery is a proprietary computerized cognitive battery of tests measure various cognitive domains including: attention, identification capability, working memory, visual memory, and executive function. […] The magnitude of the effects were, in many cases, significant with effect sizes being >0.4 (a threshold effect size which is commonly accepted as having clinical significance).

Data set [2] deals with patients suffering from schizophrenia. The data set can be described thus: P50 sensory gating evoked response in schizophrenia patients. It is filed as in vivo, Human. As to the method: The test described above was used to study the effect of the test compound on cognition in patients suffering from schizophrenia. Prior to testing, the patients were dosed with: 1 mg of the test compound daily, 0.3 mg of the test compound daily or were administered a placebo for 20 days. Subjects were tested as described below. P50 waves were elicited by clicks, 1 msec in duration, grouped in pairs in the classic S1-S2 sequence and presented through earpieces inserted into the auditory canals. Click intensity was adjusted individually to 50 dB above the hearing threshold. The offset-to-onset time from S1 to S2 was fixed at 500 msec. The offset-to-onset time between click pairs was varied from 7-11 sec. […] P50 response amplitude was calculated as the voltage difference between the P50 peak and the preceding negative trough. The P50 gating ratio was then calculated after (Olincy et al., 2006) as the amplitude of the P50 response to the second (test) stimulus divided by the amplitude of the P50 response to the first (conditioning) stimulus. […] The P50 amplitude difference (Fuerst et al., 2007) was also measured. […] Unfortunately, in the case of the P50/[…] gating study, it was necessary to discard several patients and post-treatment assignment time points from the analysis because, in those instances, a P50 waveform was not identifiable and therefore could not be measured. […]

A short description of data set [3]: maximum plasma concentration in human SAD/MAD clinical trials. It is filed as in vivo. To be noted: SAD, Day 1, 3.5 mg.

SMILES strings stand for the structures. Some results are limits rather than exact numbers.

On to `Cl.O=C(N[C@H]1CN2CCC1CC2)c1cc2cccc(Cl)c2s1`, for which the effect sizes in data set [1] (CogState, in many cases) is > 0.4. Besides, the effect on attention result in data set [1] (CogState, normal subjects) is “without having a stimulatory effect on attention”. Also, the “impact on visual motor skills, learning, executive function, and delayed memory” value in data set [1] (normal subjects, MAD studies, CogState) is “positive impact”. For the same molecule, the “cognition in CogState battery” value in data set [1] (normal subjects, MAD studies, daily dose as low as 1 mg) is “pro-cognitive effects”. Besides, the “P50 amplitude difference (C-T), baseline-adjusted” value in data set [2] (1.0 mg daily for 20 days vs placebo, FIG. 1B, F=3.97, P=0.07) is given as “normalization at the high dose”. Also, in data set [2] (limited to 1.0 mg dose, p=0.1), the “effects on the P50 component of the evoked response” value was “technically not significant”. The same molecule showed a Cmax free in data set [3] of 0.828 nM.

Values taken from patent US8815933B2 (EnVivo Pharmaceuticals, Inc., priority 2008, dated 2014).
